Columns and labels:
[1] = test system: human breast cancer cells (MDA-MB-231); test: Apoptosis test (Sub G1, propidium iodide, flow cytometry); type: cell-based
Method: (§1) Cancer cells as used in the experiment were human lung cancer cells (NCI-H460, Korean Cell Line Bank), human breast cancer cells (MDA-MB-231, American Type Culture Collection (ATCC)), human uterine cervical cancer cells (HeLa, Korean Cell Line Bank), and blood cancer cells (Jurkat, ATCC). These cancer cells were cultured in RPMI 1640 media containing 10% FBS, penicillin, and streptomycin (GIBCO BRL). The apoptosis tests were carried out at human lung cancer cells, breast cancer cells, uterine cervical cancer cells, and blood cancer cells as follows: Phytosphingosine or a derivative thereof was dissolved in DMSO. Samples of the resultant solution of different concentration levels (1, 2, 5, 10, 15, 20 μg/ml) were prepared. According to the following treatment schedule, phytosphingosine treated cancer cells were cultured, washed with PBS (phosphate buffered saline), and fixed with 70% ethanol. The fixed cells were again washed with PBS, suspended in PBS, and 1 mg/ml of RNase was added thereto. Then, DNA was stained with 50 μg/ml of propidium iodide fluorescent dye and the change in the Sub G1 was analyzed by flow cytometry (Becton DICKINSON). The Sub G1, a marker of apoptotic cell death, means DNA distribution lower than that in the G1 phase of cell cycle. (1-1) In order to determine an anticancer effect of phytosphingosine, 5 ml of 10 μg/ml of phytosphingosine was added to respective dishes containing lung cancer cells, breast cancer cells, uterine cervical cancer cells, and blood cancer cells. (1-2) In order to examine a correlation of an anticancer effect with the phytosphingosine concentration and post-treatment culture time, each 5 ml of 2, 5, 10, and 15 μg/ml of phytosphingosine was added to respective human uterine cervical cancer cell-containing dishes and human breast cancer cell-containing dishes. In addition, each 5 ml of 5, 10, 15, and 20 μg/ml of phytosphingosine was added to respective human lung cancer cell-containing dishes, and each 5 ml of 1, 5, 10, and 20 μg/ml of phytosphingosine was added to respective human blood cancer cell-containing dishes.

[2] = test system: human uterine cervical cancer cells (HeLa); test: as above; type: cell-based
Method: as §1

[3] = test system: blood cancer cells (Jurkat); test: as above; type: cell-based, human
Method: as §1

human lung cancer cells [4] = test: Analysis of mitochondrial membrane potential (DioC6(3), flow cytometry) and cytochrome c release; type: cell-based; conditions: 10 μg/ml phytosphingosine
Method: (§2) Human lung cancer cells and blood cancer cells were cultured under the same condition as in the apoptosis test and were treated with 10 ml of phytosphingosine (10 μg/ml of phytosphingosine for lung cancer cells, and 5 μg/ml and 10 μg/ml of phytosphingosine for blood cancer cells). Then, the analysis of mitochondrial membrane potential and western blotting was carried out. Mitochondria were stained with 30 nM of a specific DioC6(3) dye (Calbiochem) for 30 minutes and culture media were removed. Then, lung cancer cells were twice washed with PBS and the membrane potential was analyzed by flow cytometry.

human blood cancer cells [5] = test: Analysis of mitochondrial membrane potential and cytochrome c release; type: cell-based; conditions: 5 and 10 μg/ml phytosphingosine
Method: as §2

human lung cancer cells [6] = test: Colony formation test in combination with radiation; type: cell-based; conditions: FIG. 12
Method: Colony formation tests were carried out in human lung cancer cells, breast cancer cells, and uterine cervical cancer cells as follows:
Respective sphingosine, phytosphingosine, C6PS, and C8PS were dissolved ethanol to produce specimens. About 600 cells (for each cancer) were plated in a dish with a diameter of 60 mm and incubated in a CO2 incubator at 37° C. for a day. Then, the cancer cells were treated with the specimens in combination with radiation and were continuously cultured. When suitable colonies were formed, the cancer cells were fixed with a fixing solution (methanol/acetic acid=3:1) and stained with trypan blue. Then, the number of the colonies was counted and the results were evaluated in a comparative manner.

human blood cancer cells [7] = test: Apoptosis test with or without radiation; type: cell-based; conditions: 5 μg/ml in combination with radiation
Method: (§3) (1) Each 5 ml of 20 μg/ml of phytosphingosine and derivatives thereof were added to human lung cancer cell-containing dishes. Some cells were cultured without radiation and others were cultured with radiation with dose of 4 Gy. This apoptosis test was carried out in the same manner in the Experiment 1. Specimens used in this apoptosis test are as follows:
(§4) Control (Cont), IR, PS, PS+IR, C4PS, C4PS+IR, C6PS, C6PS+IR, C8PS, C8PS+IR, C12PS, C12PS+IR.
(§5) (2) Apoptosis tests for human blood cancer cells, uterine cervical cancer cells, and breast cancer cells were carried out in the same manner as in the above (1) except using 5 μg/ml of phytosphingosine and derivatives thereof.

[8] = test system: human breast cancer cells; test: Apoptosis test with or without radiation; type: cell-based; conditions: 5 μg/ml in combination with radiation, FIG. 17
Method: as §3, §4, §5

[9] = test system: human uterine cervical cancer cells; test: Apoptosis test with or without radiation; type: cell-based; conditions: 5 μg/ml in combination with radiation, FIG. 17
Method: as §3, §4, §5

Acute oral toxicity test = conditions: rat, in vivo, rats
Method: (§6) Royal Gist-Brocades N.V. (Netherlands) was asked to perform tests for acute oral toxicity and dermal irritation, and Ames tests of phytosphingosine and derivatives thereof.
In the acute oral toxicity test, the LD50 (the […]) value amounted to 2,000 mg/kg or more in rats.

Dermal irritation test = type: in vivo; conditions: rabbits
Source text: as §6

Ames test = test: Ames test
Source text: as §6

[10] = 10 μg/ml phytosphingosine, test (1-1), FIG. 1

For CCCCCCCCCCCCCC[C@@H](O)[C@@H](O)[C@@H](N)CO [phytosphingosine], the apoptosis ([1]; 10 μg/ml or more, culture of 12 hours or more, FIG. 4) was no less than 50%, the “anticancer effect compared to untreated cancer cells” value [1, 10] was “excellent anticancer effects” and the apoptosis ([1]; 10 μg/ml, at 12 hours after treatment) was 50%. For the same compound, the “anticancer effect compared to untreated cancer cells” value [2, 10] was “excellent anticancer effects”, the apoptosis ([2]; 15 μg/ml or more, culture of 12 hours or more, FIG. 3) was no less than 50% and the apoptosis ([2]; 15 μg/ml, at 12-18 hours after treatment) was 50%. For the same compound, the apoptosis ([3]; 5 μg/ml or more, culture of 6 hours or more, FIG. 6) was no less than 50%, the apoptosis ([3]; 5 μg/ml, at 3-6 hours after treatment) was no less than 50% and the apoptosis ([3]; 10 μg/ml or more, culture of 3 hours or more, FIG. 6) was no less than 50%. For the same compound, the apoptotic rate [3, 10] was no less than 50%, the “release of cytochrome c from mitochondria” value (human lung cancer cells [4]; FIGS. 7, 9) was “increased” and the mitochondrial membrane potential (human lung cancer cells [4]; FIGS. 7-8) was “decreased”. For the same compound, the mitochondrial membrane potential (human blood cancer cells [5]) was “decreased”, the “release of cytochrome c from mitochondria” value (human blood cancer cells [5]) was “increased” and the “reduction of tumor growth, concurrent treatment vs radiation, sphingosine or PS alone” value (human lung cancer cells [6]; PS in combination with radiation) was no less than 30%. For the same compound, the “sensitizer enhancement ratio (SER)” value (human lung cancer cells [6]; in combination with radiation) was 1.21, the “increase of apoptotic rate, concurrent treatment vs PS or radiation alone” value (human blood cancer cells [7]; FIG. 15) was no less than 20% and the “increase of apoptotic rate, concurrent treatment vs PS or radiation alone” value (human blood cancer cells [7]; after 18 hours, FIG. 16) was no less than 15%. For the same compound, the “enhancement of radiosensitizing effect” value [8] was “excellent”, the “enhancement of radiosensitizing effect” value [9] was “excellent” and the LD50 (Acute oral toxicity test) was no less than 2000 mg/kg. For the same compound, the dermal irritation (Dermal irritation test) was “did not cause dermal damages” and the “mutagenicity (Ames test)” value (Ames test) was “do not cause mutation”.

From patent publication US20090176888A1, “COMPOSITION COMPRISING PHYTOSPHINGOSINE OR DERIVATIVE THEREOF” (KOREA INSTITUTE OF RADIOLOGICAL & MEDICAL SCIENCES, priority 2003, published 2009)
